Converted amounts (≈) assume the structure as drawn.

The IC50 is the concentration that gives 50% inhibition. Read a high IC50 as weaker potency.

Common to all, as to assay type: functional, cell-based
For assay [1], the system named is XF498. The assay is described as follows: Cytotoxicity against Homo sapiens (human) XF498 cells after 72 hr by MTT assay. Particulars: XF498, 72 h. A general note: Formazan colour is commonly taken as a measure of viable cells.
The test system of assay [2] is HCT-15. Briefly: Cytotoxicity against Homo sapiens (human) HCT15 cells after 72 hr by MTT assay. Particulars: HCT-15, 72 h.
Assay [3] deals with SK-OV-3. Briefly: Cytotoxicity against Homo sapiens (human) SKOV3 cells after 72 hr by MTT assay. Particulars: SK-OV-3, 72 h.
In assay [4] the test system is SK-MEL-2. Briefly: Cytotoxicity against Homo sapiens (human) SK-MEL-2 cells after 72 hr by MTT assay. Particulars: SK-MEL-2, 72 h.
Assay [5] relates to A549. Briefly: Cytotoxicity against Homo sapiens (human) A549 cells after 72 hr by MTT assay. Particulars: A549, 72 h.

Take `O=C1C(Cl)=C(Nc2ccc(Cl)cc2)C(=O)c2cnccc21`: the IC50 in assay [1] was 1.28 µg/mL (≈ 4.01 µM); in assay [2] it was 0.18 µg/mL (≈ 0.564 µM); in assay [3], 0.97 µg/mL (≈ 3.04 µM); in assay [4], 0.66 µg/mL (≈ 2.07 µM); in assay [5], 1.1 µg/mL (≈ 3.45 µM).
`O=C1C(Cl)=C(Nc2ccc(I)cc2)C(=O)c2cnccc21`: the IC50 in assay [1] came out at 0.04 µg/mL (≈ 0.0974 µM); in assay [2] it was 0.01 µg/mL (≈ 0.0244 µM); in assay [3], 0.04 µg/mL (≈ 0.0974 µM); in assay [4], 0.02 µg/mL (≈ 0.0487 µM); in assay [5], 0.27 µg/mL (≈ 0.658 µM).
With `O=C1C(Cl)=C(Nc2ccc(F)cc2)C(=O)c2cnccc21`, the IC50 in assay [1] amounted to 1.54 µg/mL (≈ 5.09 µM); in assay [2], 0.31 µg/mL (≈ 1.02 µM); in assay [3], 1.86 µg/mL (≈ 6.14 µM); in assay [4], 1.22 µg/mL (≈ 4.03 µM); in assay [5], 1.27 µg/mL (≈ 4.2 µM).
In the same order, the values of `O=C1C(Cl)=C(Nc2ccc(Br)cc2)C(=O)c2cnccc21` are 0.22 µg/mL (≈ 0.605 µM), 0.1 µg/mL (≈ 0.275 µM), 0.29 µg/mL (≈ 0.798 µM), 0.23 µg/mL (≈ 0.633 µM) and 1.96 µg/mL (≈ 5.39 µM).
Consider `O=C1C(Nc2ccccc2)=C(Cl)C(=O)c2ncncc21`, for which the IC50 in assay [1] worked out at 0.28 µg/mL (≈ 0.98 µM); in assay [2], 0.03 µg/mL (≈ 0.105 µM); in assay [3], 0.19 µg/mL (≈ 0.665 µM); in assay [4] it was 0.04 µg/mL (≈ 0.14 µM); in assay [5] it was 0.33 µg/mL (≈ 1.16 µM).
`Cc1ccc(NC2=C(Cl)C(=O)c3ncccc3C2=O)cc1`: the IC50 in assay [1] came to 1.26 µg/mL (≈ 4.22 µM); in assay [2] it was 0.33 µg/mL (≈ 1.1 µM); in assay [3], 1.27 µg/mL (≈ 4.25 µM); in assay [4] it was 0.42 µg/mL (≈ 1.41 µM); in assay [5], 1.14 µg/mL (≈ 3.82 µM).
The like results for `O=C1C(Nc2ccc(F)cc2)=C(Cl)C(=O)c2ncncc21` were, in that order, 0.19 µg/mL (≈ 0.626 µM), 0.04 µg/mL (≈ 0.132 µM), 0.27 µg/mL (≈ 0.889 µM), 0.08 µg/mL (≈ 0.263 µM) and 0.33 µg/mL (≈ 1.09 µM).
In the case of `O=C1C(Nc2ccc(Cl)cc2)=C(Cl)C(=O)c2ncncc21`, the 50% inhibitory concentration (IC50) is 0.4 µg/mL (≈ 1.25 µM) in assay [1]; 0.29 µg/mL (≈ 0.906 µM) in assay [2]; 0.31 µg/mL (≈ 0.968 µM) in assay [3]; 0.3 µg/mL (≈ 0.937 µM) in assay [4]; 0.3 µg/mL (≈ 0.937 µM) in assay [5].
With `O=C1C(Nc2ccc(OC(F)(F)F)cc2)=C(Cl)C(=O)c2ncncc21`, the IC50 in assay [1] is 0.23 µg/mL (≈ 0.622 µM); in assay [2] it was 0.22 µg/mL (≈ 0.595 µM); in assay [3] it was 0.27 µg/mL (≈ 0.73 µM); in assay [4] it was 0.29 µg/mL (≈ 0.784 µM); in assay [5] it was 0.37 µg/mL (≈ 1 µM).
The like results for `O=C1C(Nc2ccc(I)cc2)=C(Cl)C(=O)c2ncncc21` were, in that order, 1.33 µg/mL (≈ 3.23 µM), 0.28 µg/mL (≈ 0.68 µM), 0.27 µg/mL (≈ 0.656 µM), 0.3 µg/mL (≈ 0.729 µM) and 1.51 µg/mL (≈ 3.67 µM).
In the same order, the values of `CCOc1ccc(NC2=C(Cl)C(=O)c3ncncc3C2=O)cc1` are 0.3 µg/mL (≈ 0.91 µM), 0.04 µg/mL (≈ 0.121 µM), 0.22 µg/mL (≈ 0.667 µM), 0.08 µg/mL (≈ 0.243 µM) and 0.33 µg/mL (≈ 1 µM).
The like results for `O=C1C(Nc2ccc(C(F)(F)F)cc2)=C(Cl)C(=O)c2ncncc21` were, in that order, 0.29 µg/mL (≈ 0.82 µM), 0.03 µg/mL (≈ 0.0848 µM), 0.21 µg/mL (≈ 0.594 µM), 0.06 µg/mL (≈ 0.17 µM) and 0.32 µg/mL (≈ 0.905 µM).
Turning to `N#Cc1ccc(NC2=C(Cl)C(=O)c3ncncc3C2=O)cc1`, the IC50 was 1.68 µg/mL (≈ 5.41 µM) in assay [1]; 0.24 µg/mL (≈ 0.772 µM) in assay [2]; 0.31 µg/mL (≈ 0.998 µM) in assay [3]; 0.62 µg/mL (≈ 2 µM) in assay [4]; 1.34 µg/mL (≈ 4.31 µM) in assay [5].
In the same order, the values of `O=C1C(Nc2ccc([N+](=O)[O-])cc2)=C(Cl)C(=O)c2ncncc21` are 15.4 µg/mL (≈ 46.4 µM), 0.3 µg/mL (≈ 0.907 µM), 1.28 µg/mL (≈ 3.87 µM), 0.61 µg/mL (≈ 1.84 µM) and 2.77 µg/mL (≈ 8.38 µM).
In the same order, the values of `O=C1C(Nc2ccccc2)=CC(=O)c2ncncc21` are 0.01 µg/mL (≈ 0.0398 µM), 0.01 µg/mL (≈ 0.0398 µM), less than 0.01 µg/mL, 0.01 µg/mL (≈ 0.0398 µM) and 0.02 µg/mL (≈ 0.0796 µM).
In the same order, the values of `O=C1C(Nc2ccc(F)cc2)=CC(=O)c2ncncc21` are 0.04 µg/mL (≈ 0.149 µM), 0.02 µg/mL (≈ 0.0743 µM), 0.07 µg/mL (≈ 0.26 µM), 0.05 µg/mL (≈ 0.186 µM) and 1.08 µg/mL (≈ 4.01 µM).
For `O=C1C(Nc2ccc(Cl)cc2)=CC(=O)c2ncncc21`, the 50% inhibitory concentration (IC50) in assay [1] was 0.01 µg/mL (≈ 0.035 µM); in assay [2], less than 0.01 µg/mL; in assay [3], 0.01 µg/mL (≈ 0.035 µM); in assay [4] it was 0.01 µg/mL (≈ 0.035 µM); in assay [5] it was 0.02 µg/mL (≈ 0.07 µM).
With `O=C1C(Nc2ccc(Br)cc2)=CC(=O)c2ncncc21`, the 50% inhibitory concentration (IC50) in assay [1] amounted to 0.03 µg/mL (≈ 0.0909 µM); in assay [2], 0.01 µg/mL (≈ 0.0303 µM); in assay [3], 0.02 µg/mL (≈ 0.0606 µM); in assay [4] it was 0.02 µg/mL (≈ 0.0606 µM); in assay [5], 0.09 µg/mL (≈ 0.273 µM).
For the molecule `O=C1C(Nc2ccc(I)cc2)=CC(=O)c2ncncc21`, the half-inhibitory concentration (IC50) came out at 0.04 µg/mL (≈ 0.106 µM) in assay [1]; 0.01 µg/mL (≈ 0.0265 µM) in assay [2]; 0.04 µg/mL (≈ 0.106 µM) in assay [3]; 0.02 µg/mL (≈ 0.053 µM) in assay [4]; 0.27 µg/mL (≈ 0.716 µM) in assay [5].
Turning to `CCOc1ccc(NC2=CC(=O)c3ncncc3C2=O)cc1`, the IC50 in assay [1] turned out to be 0.03 µg/mL (≈ 0.102 µM); in assay [2] it was 0.02 µg/mL (≈ 0.0677 µM); in assay [3], 0.02 µg/mL (≈ 0.0677 µM); in assay [4] it was 0.02 µg/mL (≈ 0.0677 µM); in assay [5] it was 0.16 µg/mL (≈ 0.542 µM).
On to `Cc1ccc(NC2=CC(=O)c3ncncc3C2=O)cc1`, for which the IC50 in assay [1] came to 0.13 µg/mL (≈ 0.49 µM); in assay [2], 0.01 µg/mL (≈ 0.0377 µM); in assay [3], 0.03 µg/mL (≈ 0.113 µM); in assay [4], 0.02 µg/mL (≈ 0.0754 µM); in assay [5], 0.02 µg/mL (≈ 0.0754 µM).
Take `O=C1C(Nc2ccccc2)=C(Cl)C(=O)c2ncccc21`: the concentration for half-maximal inhibition (IC50) in assay [1] is 1.33 µg/mL (≈ 4.67 µM); in assay [2], 0.74 µg/mL (≈ 2.6 µM); in assay [3], 1.34 µg/mL (≈ 4.71 µM); in assay [4], 1.42 µg/mL (≈ 4.99 µM); in assay [5] it was 2.3 µg/mL (≈ 8.08 µM).
The like results for `O=C1C(Nc2ccc(F)cc2)=C(Cl)C(=O)c2ncccc21` were, in that order, 0.36 µg/mL (≈ 1.19 µM), 0.18 µg/mL (≈ 0.595 µM), 0.5 µg/mL (≈ 1.65 µM), 1.39 µg/mL (≈ 4.59 µM) and 1.25 µg/mL (≈ 4.13 µM).
In the same order, the values of `O=C1C(Nc2ccc(Cl)cc2)=C(Cl)C(=O)c2ncccc21` are 3.31 µg/mL (≈ 10.4 µM), 0.34 µg/mL (≈ 1.07 µM), 1.33 µg/mL (≈ 4.17 µM), 1.3 µg/mL (≈ 4.07 µM) and 5.03 µg/mL (≈ 15.8 µM).
In the same order, the values of `O=C1C(Nc2ccc(Br)cc2)=C(Cl)C(=O)c2ncccc21` are 2.83 µg/mL (≈ 7.78 µM), 0.34 µg/mL (≈ 0.935 µM), 0.92 µg/mL (≈ 2.53 µM), 1.26 µg/mL (≈ 3.47 µM) and 4.28 µg/mL (≈ 11.8 µM).
In the case of `O=C1C(Nc2ccc(I)cc2)=C(Cl)C(=O)c2ncccc21`, the IC50 came to 3.61 µg/mL (≈ 8.79 µM) in assay [1]; 1.27 µg/mL (≈ 3.09 µM) in assay [2]; 1.62 µg/mL (≈ 3.95 µM) in assay [3]; 3.3 µg/mL (≈ 8.04 µM) in assay [4]; 4.29 µg/mL (≈ 10.4 µM) in assay [5].
